# Results as given in article PMC7265341, “Quantifying CDK inhibitor selectivity in live cells” (Nature Communications, 2020).
# Like-named read-outs stand apart in the source and are kept apart here.
# Columns and labels:
# [1] = biological target: CDK18/Cyclin Y (Homo sapiens, UniProt Q07002); assay: NanoBRET live-cell target engagement, CDK18-NanoLuc/Cyclin Y in HEK-293; format: binding; conditions: CDK18/Y; for IC50: read-out: IC50
# [2] = biological target: CDK8/Cyclin C (Homo sapiens, UniProt P49336); assay: NanoBRET live-cell target engagement, NanoLuc-CDK8/Cyclin C in HEK-293; format: binding; conditions: CDK8/C
# [3] = biological target: CDK9/Cyclin K (Homo sapiens, UniProt P50750); assay: NanoBRET live-cell target engagement, NanoLuc-CDK9/Cyclin K in HEK-293; format: binding; conditions: CDK9/K
# [4] = biological target: CDK16/Cyclin Y (Homo sapiens, UniProt Q00536); assay: NanoBRET live-cell target engagement, CDK16-NanoLuc/Cyclin Y in HEK-293; format: binding; conditions: CDK16/Y; for IC50: read-out: IC50
# Chain of CDK16/Cyclin Y (Q00536 whole entry): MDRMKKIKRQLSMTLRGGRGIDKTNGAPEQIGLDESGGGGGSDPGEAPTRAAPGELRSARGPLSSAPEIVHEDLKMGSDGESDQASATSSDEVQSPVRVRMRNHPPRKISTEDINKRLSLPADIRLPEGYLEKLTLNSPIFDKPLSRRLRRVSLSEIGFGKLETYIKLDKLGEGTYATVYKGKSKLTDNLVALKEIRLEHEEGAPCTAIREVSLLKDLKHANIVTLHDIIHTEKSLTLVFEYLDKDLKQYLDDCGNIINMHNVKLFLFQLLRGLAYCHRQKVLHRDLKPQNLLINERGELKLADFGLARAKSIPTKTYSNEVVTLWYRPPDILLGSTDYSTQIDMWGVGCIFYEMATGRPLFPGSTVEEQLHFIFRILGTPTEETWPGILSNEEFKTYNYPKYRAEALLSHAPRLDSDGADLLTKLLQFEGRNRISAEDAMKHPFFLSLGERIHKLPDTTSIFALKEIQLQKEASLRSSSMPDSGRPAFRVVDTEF
# Chain of CDK16/Cyclin Y (Q8ND76 whole entry partner): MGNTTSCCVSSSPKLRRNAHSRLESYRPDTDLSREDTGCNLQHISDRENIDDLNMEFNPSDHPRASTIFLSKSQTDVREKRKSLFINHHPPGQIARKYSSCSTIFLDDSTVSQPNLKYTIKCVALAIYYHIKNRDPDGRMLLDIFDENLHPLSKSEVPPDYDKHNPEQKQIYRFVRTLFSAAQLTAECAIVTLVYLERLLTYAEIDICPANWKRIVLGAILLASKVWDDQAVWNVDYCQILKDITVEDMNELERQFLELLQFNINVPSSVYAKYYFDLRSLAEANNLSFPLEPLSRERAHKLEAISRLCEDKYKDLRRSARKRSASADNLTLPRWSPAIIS
# [5] = biological target: T1, CDK11A/Cyclin L2 (Homo sapiens, UniProt Q9UQ88); assay: NanoBRET live-cell target engagement, CDK11A-NanoLuc/Cyclin L2 in HEK-293; format: binding; conditions: CDK11a/L2; for IC50: read-out: IC50
# T1 sequence (Q9UQ88 1-783): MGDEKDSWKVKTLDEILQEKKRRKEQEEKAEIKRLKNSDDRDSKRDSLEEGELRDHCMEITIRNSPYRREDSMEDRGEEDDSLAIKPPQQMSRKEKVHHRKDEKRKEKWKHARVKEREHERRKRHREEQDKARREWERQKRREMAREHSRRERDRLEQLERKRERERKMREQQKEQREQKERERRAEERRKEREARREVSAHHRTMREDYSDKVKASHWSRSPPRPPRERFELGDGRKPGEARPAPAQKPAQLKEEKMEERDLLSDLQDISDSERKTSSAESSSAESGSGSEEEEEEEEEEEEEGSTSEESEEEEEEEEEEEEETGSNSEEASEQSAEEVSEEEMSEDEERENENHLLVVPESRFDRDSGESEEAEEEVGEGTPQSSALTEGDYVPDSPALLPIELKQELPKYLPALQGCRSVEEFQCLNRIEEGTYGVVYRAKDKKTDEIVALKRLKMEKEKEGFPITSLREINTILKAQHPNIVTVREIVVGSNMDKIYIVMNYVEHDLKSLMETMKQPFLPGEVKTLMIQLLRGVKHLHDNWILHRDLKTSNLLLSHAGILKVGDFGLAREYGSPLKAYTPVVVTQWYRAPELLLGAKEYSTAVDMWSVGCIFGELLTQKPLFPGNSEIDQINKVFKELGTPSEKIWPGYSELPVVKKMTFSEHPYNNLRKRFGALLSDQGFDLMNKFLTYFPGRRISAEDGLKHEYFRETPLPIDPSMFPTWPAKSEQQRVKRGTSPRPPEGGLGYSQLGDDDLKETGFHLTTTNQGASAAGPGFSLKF
# [6] = biological target: CDK1/Cyclin E1 (Homo sapiens, UniProt P06493); assay: NanoBRET live-cell target engagement, CDK1-NanoLuc/Cyclin E1 in HEK-293; format: binding; conditions: CDK1/E1
# [7] = biological target: CDK6/Cyclin D1 (Homo sapiens, UniProt Q00534); assay: NanoBRET live-cell target engagement, NanoLuc-CDK6/Cyclin D1 in HEK-293; format: binding; conditions: CDK6/D1; for IC50: read-out: IC50
# Chain of CDK6/Cyclin D1 (Q00534 whole entry): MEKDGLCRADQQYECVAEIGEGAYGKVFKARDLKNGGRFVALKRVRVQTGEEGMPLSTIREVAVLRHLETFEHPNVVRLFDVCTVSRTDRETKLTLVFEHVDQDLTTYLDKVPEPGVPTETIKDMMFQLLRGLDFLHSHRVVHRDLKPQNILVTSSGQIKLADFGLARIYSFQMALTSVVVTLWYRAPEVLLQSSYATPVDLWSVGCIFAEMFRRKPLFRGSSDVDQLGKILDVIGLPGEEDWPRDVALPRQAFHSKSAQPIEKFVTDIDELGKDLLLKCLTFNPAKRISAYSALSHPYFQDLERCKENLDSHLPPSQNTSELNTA
# Chain of CDK6/Cyclin D1 (P24385 whole entry partner): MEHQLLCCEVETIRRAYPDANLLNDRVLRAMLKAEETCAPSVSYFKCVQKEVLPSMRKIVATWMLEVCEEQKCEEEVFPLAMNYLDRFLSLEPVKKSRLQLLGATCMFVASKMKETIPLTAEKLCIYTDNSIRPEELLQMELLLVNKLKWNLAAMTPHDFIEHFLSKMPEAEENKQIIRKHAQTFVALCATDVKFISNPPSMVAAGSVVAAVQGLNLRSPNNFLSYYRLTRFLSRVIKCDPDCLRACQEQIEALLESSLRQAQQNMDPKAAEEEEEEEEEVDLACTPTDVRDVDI
# [8] = biological target: CDK5/CDK5R1 (Homo sapiens, UniProt Q00535); assay: NanoBRET live-cell target engagement, CDK5-NanoLuc/CDK5R1 in HEK-293; format: binding; conditions: CDK5/CDK5R1
# [9] = biological target: CDK13/Cyclin K (Homo sapiens, UniProt Q14004); assay: NanoBRET live-cell target engagement, CDK13-NanoLuc/Cyclin K in HEK-293; format: binding; conditions: CDK13/K
# Chain of CDK13/Cyclin K (O75909 whole entry): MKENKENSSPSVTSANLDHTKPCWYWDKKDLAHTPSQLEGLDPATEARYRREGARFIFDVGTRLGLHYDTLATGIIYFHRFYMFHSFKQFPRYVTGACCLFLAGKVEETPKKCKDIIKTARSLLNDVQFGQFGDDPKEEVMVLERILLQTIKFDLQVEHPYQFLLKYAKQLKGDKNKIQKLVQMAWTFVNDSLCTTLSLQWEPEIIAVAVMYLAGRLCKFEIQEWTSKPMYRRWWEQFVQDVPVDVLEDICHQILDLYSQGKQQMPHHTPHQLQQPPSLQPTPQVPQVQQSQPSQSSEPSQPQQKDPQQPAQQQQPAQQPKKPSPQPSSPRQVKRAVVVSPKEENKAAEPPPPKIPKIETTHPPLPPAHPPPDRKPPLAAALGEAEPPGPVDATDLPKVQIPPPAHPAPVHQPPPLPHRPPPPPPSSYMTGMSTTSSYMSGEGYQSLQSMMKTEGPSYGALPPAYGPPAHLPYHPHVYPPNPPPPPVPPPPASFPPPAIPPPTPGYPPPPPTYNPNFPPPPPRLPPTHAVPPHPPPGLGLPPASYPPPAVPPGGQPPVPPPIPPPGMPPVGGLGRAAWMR
# Chain of CDK13/Cyclin K (Q14004 other isoform, or with tags, fused parts or gaps): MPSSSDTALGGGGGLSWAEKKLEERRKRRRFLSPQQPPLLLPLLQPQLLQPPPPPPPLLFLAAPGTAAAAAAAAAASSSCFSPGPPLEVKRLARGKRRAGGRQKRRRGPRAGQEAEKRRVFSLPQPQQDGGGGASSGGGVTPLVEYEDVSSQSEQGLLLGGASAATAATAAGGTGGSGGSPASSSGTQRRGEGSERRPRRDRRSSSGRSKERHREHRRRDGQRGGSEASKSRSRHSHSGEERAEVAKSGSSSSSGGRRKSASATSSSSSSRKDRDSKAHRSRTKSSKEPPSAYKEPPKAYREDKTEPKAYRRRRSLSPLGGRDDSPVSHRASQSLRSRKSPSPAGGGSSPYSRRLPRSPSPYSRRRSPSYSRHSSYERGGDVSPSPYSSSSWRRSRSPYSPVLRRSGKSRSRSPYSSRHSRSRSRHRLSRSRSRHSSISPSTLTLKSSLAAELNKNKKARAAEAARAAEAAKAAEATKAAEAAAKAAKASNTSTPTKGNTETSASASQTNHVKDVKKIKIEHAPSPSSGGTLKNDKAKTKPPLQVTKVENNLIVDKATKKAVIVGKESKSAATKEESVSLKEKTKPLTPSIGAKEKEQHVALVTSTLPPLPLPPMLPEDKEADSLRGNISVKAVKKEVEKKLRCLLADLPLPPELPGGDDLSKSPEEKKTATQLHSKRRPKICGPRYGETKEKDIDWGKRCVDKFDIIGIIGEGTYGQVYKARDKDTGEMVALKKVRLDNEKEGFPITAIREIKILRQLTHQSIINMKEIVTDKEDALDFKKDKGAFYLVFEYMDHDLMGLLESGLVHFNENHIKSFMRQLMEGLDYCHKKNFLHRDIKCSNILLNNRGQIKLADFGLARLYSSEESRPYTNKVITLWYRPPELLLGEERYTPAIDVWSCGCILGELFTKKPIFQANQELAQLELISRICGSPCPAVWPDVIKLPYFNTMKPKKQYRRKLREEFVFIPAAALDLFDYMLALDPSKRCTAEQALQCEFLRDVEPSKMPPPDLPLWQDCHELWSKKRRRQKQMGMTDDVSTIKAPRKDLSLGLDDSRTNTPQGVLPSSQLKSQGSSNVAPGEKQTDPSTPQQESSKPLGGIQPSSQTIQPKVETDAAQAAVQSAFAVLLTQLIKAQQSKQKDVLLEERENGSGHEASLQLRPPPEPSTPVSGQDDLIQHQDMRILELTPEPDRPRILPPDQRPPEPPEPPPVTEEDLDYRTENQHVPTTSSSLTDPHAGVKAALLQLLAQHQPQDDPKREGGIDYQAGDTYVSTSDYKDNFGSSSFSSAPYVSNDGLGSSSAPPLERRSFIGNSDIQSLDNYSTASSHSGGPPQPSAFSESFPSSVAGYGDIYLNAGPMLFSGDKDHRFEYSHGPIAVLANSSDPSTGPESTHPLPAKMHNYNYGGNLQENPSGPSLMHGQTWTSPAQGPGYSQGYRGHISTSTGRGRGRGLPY
# [10] = biological target: CDK20/Cyclin H (Homo sapiens, UniProt Q8IZL9); assay: NanoBRET live-cell target engagement, NanoLuc-CDK20/Cyclin H in HEK-293; format: binding; conditions: CDK20/H
# [11] = biological target: CDK11B/Cyclin L2 (Homo sapiens, UniProt P21127); assay: NanoBRET live-cell target engagement, CDK11B-NanoLuc/Cyclin L2 in HEK-293; format: binding; conditions: CDK11b/L2; for IC50: read-out: IC50
# Chain of CDK11B/Cyclin L2 (P21127 1-782 isoform P21127-2): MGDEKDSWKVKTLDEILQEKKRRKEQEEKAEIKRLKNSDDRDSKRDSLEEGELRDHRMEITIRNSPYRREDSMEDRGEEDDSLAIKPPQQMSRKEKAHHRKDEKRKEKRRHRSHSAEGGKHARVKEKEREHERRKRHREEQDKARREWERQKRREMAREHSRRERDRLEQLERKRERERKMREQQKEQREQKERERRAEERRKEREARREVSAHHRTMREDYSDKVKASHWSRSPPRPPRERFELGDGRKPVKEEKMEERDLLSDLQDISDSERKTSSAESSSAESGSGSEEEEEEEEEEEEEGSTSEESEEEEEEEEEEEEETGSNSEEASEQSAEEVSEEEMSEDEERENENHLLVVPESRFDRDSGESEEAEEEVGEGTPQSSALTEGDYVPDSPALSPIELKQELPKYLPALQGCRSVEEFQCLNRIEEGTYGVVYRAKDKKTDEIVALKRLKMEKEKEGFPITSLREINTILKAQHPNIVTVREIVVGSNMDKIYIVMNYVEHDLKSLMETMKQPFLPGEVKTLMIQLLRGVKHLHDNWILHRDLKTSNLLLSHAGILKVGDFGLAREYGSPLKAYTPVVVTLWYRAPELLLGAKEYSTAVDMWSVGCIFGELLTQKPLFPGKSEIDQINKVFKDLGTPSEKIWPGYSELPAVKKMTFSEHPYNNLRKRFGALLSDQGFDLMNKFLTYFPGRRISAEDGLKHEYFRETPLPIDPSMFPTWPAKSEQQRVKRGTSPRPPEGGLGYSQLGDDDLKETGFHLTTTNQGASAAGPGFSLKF
# [12] = biological target: CDK12/Cyclin K (Homo sapiens, UniProt Q9NYV4); assay: NanoBRET live-cell target engagement, CDK12-NanoLuc/Cyclin K in HEK-293; format: binding; conditions: CDK12/K
# [13] = biological target: CDK10/Cyclin L2 (Homo sapiens, UniProt Q15131); assay: NanoBRET live-cell target engagement, CDK10-NanoLuc/Cyclin L2 in HEK-293; conditions: CDK10/L2
# [14] = biological target: CDK19/Cyclin C (Homo sapiens, UniProt Q9BWU1); assay: NanoBRET live-cell target engagement, NanoLuc-CDK19/Cyclin C in HEK-293; conditions: CDK19/C
# [15] = biological target: CDK4/Cyclin D1 (Homo sapiens, UniProt P11802); assay: NanoBRET live-cell target engagement, NanoLuc-CDK4/Cyclin D1 in HEK-293; format: binding; conditions: CDK4/D1; for IC50: read-out: IC50
# [16] = biological target: CDK2/Cyclin E1 (Homo sapiens, UniProt P24941); assay: NanoBRET live-cell target engagement, CDK2-NanoLuc/Cyclin E1 in HEK-293; format: binding; conditions: CDK2/E1; for IC50: read-out: IC50
# [17] = biological target: CDK15/Cyclin Y (Homo sapiens, UniProt Q96Q40); assay: NanoBRET live-cell target engagement, NanoLuc-CDK15/Cyclin Y in HEK-293; format: binding
# [18] = biological target: CDK17/Cyclin Y (Homo sapiens, UniProt Q00537); assay: NanoBRET live-cell target engagement, CDK17-NanoLuc/Cyclin Y in HEK-293; format: binding; conditions: CDK17/Y; for IC50: read-out: IC50
# [19] = biological target: CDK3/Cyclin E1 (Homo sapiens, UniProt Q00526); assay: NanoBRET live-cell target engagement, CDK3-NanoLuc/Cyclin E1 in HEK-293; format: binding; conditions: CDK3/E1
# Chain of CDK18/Cyclin Y (Q07002 whole entry): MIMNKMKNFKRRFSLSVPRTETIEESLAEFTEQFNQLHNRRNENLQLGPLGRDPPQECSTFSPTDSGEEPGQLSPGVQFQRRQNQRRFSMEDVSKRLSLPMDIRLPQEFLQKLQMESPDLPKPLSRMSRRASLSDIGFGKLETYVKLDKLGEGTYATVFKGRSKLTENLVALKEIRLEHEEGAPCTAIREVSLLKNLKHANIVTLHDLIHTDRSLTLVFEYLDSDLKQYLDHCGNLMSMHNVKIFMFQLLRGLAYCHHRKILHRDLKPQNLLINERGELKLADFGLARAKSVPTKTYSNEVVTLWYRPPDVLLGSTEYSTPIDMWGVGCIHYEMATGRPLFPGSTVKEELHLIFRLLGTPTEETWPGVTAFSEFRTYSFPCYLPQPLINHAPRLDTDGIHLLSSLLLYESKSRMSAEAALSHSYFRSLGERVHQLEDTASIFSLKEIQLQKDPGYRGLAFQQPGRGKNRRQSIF
# Chain of CDK18/Cyclin Y (Q8ND76 whole entry partner): as the sequence (Q8ND76 whole entry partner) above
structure (smiles),measurement,setting,value
CC(C)c1c2cc(-c3ccnc(N[C@H]4CC[C@H](NC5CCOCC5)CC4)n3)ccc2nn1C [LY2857785],Inhibition at 10µM (%),[1]; average,96.0%
same,IC50,[1]; average (± SEM where n=3),290 nM
same,Inhibition at 10µM (%),[1]; experiment 1,91.6%
same,IC50,[1]; experiment 1,204 nM
same,Inhibition at 10µM (%),[1]; experiment 2,100.3%
same,IC50,[1]; experiment 2,370 nM
same,Inhibition at 10µM (%),[2]; average,83.7%
same,Inhibition at 10µM (%),[2]; experiment 1,88.4%
same,Inhibition at 10µM (%),[2]; experiment 2,79.0%
same,Inhibition at 10µM (%),[3]; average,97.9%
same,Inhibition at 10µM (%),[3]; experiment 1,98.0%
same,Inhibition at 10µM (%),[3]; experiment 2,97.9%
same,IC50,[4]; average (± SEM where n=3),160 nM
same,Inhibition at 10µM (%),[4]; experiment 1,82.9%
same,IC50,[4]; experiment 1,220 nM
same,Inhibition at 10µM (%),[4]; experiment 2,91.1%
same,IC50,[4]; experiment 2,91 nM
same,Inhibition at 10µM (%),[5]; average,95.5%
same,IC50,[5]; average (± SEM where n=3),17 nM
same,Inhibition at 10µM (%),[5]; experiment 1,95.3%
same,IC50,[5]; experiment 1,10 nM
same,Inhibition at 10µM (%),[5]; experiment 2,95.7%
same,IC50,[5]; experiment 2,23 nM
same,Inhibition at 10µM (%),[6]; average,76.5%
same,Inhibition at 10µM (%),[6]; experiment 1,76.1%
same,Inhibition at 10µM (%),[6]; experiment 2,76.9%
same,Inhibition at 10µM (%),[7]; average,96.5%
same,IC50,[7]; average (± SEM where n=3),110 nM
same,Inhibition at 10µM (%),[7]; experiment 1,96.6%
same,IC50,[7]; experiment 1,124 nM
same,Inhibition at 10µM (%),[7]; experiment 2,96.3%
same,IC50,[7]; experiment 2,98 nM
same,Inhibition at 10µM (%),[8]; average,68.7%
same,Inhibition at 10µM (%),[8]; experiment 1,68.7%
same,Inhibition at 10µM (%),[8]; experiment 2,68.7%
same,Inhibition at 10µM (%),[9]; average,26.3%
same,Inhibition at 10µM (%),[9]; experiment 1,28.2%
same,Inhibition at 10µM (%),[9]; experiment 2,24.3%
same,Inhibition at 10µM (%),[10]; experiment 1,39.4%
same,Inhibition at 10µM (%),[10]; experiment 2,39.8%
same,Inhibition at 10µM (%),[11]; average,94.8%
same,IC50,[11]; average (± SEM where n=3),24 nM
same,Inhibition at 10µM (%),[11]; experiment 1,95.7%
same,IC50,[11]; experiment 1,21 nM
same,Inhibition at 10µM (%),[11]; experiment 2,93.9%
same,IC50,[11]; experiment 2,27 nM
same,Inhibition at 10µM (%),[12]; average,43.6%
same,Inhibition at 10µM (%),[12]; experiment 1,48.1%
same,Inhibition at 10µM (%),[12]; experiment 2,39.1%
same,Inhibition at 10µM (%),[13]; average,80.7%
same,IC50,[13]; average (± SEM where n=3),600 nM
same,IC50,[13]; experiment 1,490 nM
same,Inhibition at 10µM (%),[13]; experiment 1,81.9%
same,IC50,[13]; experiment 2,710 nM
same,Inhibition at 10µM (%),[13]; experiment 2,79.4%
same,Inhibition at 10µM (%),[14]; average,82.9%
same,Inhibition at 10µM (%),[14]; experiment 1,90.1%
same,Inhibition at 10µM (%),[14]; experiment 2,75.7%
same,Inhibition at 10µM (%),[15]; average,97.1%
same,IC50,[15]; average (± SEM where n=3),40 nM
same,Inhibition at 10µM (%),[15]; experiment 1,97.8%
same,IC50,[15]; experiment 1,44 nM
same,Inhibition at 10µM (%),[15]; experiment 2,96.5%
same,IC50,[15]; experiment 2,36 nM
same,Inhibition at 10µM (%),[16]; average,85.9%
same,IC50,[16]; average (± SEM where n=3),660 nM
same,Inhibition at 10µM (%),[16]; experiment 1,85.1%
same,IC50,[16]; experiment 1,730 nM
same,Inhibition at 10µM (%),[16]; experiment 2,86.7%
same,IC50,[16]; experiment 2,590 nM
same,Inhibition at 10µM (%),"[17]; CDK15/Y, average",93.6%
same,IC50,"[17]; CDK15/Y, average (± SEM where n=3), read-out: IC50",320 nM
same,Inhibition at 10µM (%),"[17]; CDK15/Y, experiment 1",93.4%
same,IC50,"[17]; CDK15/Y, experiment 1, read-out: IC50",323 nM
same,Inhibition at 10µM (%),"[17]; CDK15/Y, experiment 2",93.9%
same,IC50,"[17]; CDK15/Y, experiment 2, read-out: IC50",320 nM
same,IC50,"[17]; live HEK-293, 2 h, mean ± S.E.M. (n=3) or mean (n=2), read-out: IC50 for CDK/cyclin complexes, CDK15/Y",320 nM
same,Inhibition at 10µM (%),[18]; average,90.5%
same,IC50,[18]; average (± SEM where n=3),41 nM
same,Inhibition at 10µM (%),[18]; experiment 1,89.7%
same,IC50,[18]; experiment 1,15 nM
same,Inhibition at 10µM (%),[18]; experiment 2,91.4%
same,IC50,[18]; experiment 2,67 nM
same,Inhibition at 10µM (%),[19]; average,89.1%
same,Inhibition at 10µM (%),[19]; experiment 1,89.3%
same,Inhibition at 10µM (%),[19]; experiment 2,88.9%
